Tests used:
Type in all cases: cell-based
Fusarium proliferatum = assay: Growth inhibition of Fusarium proliferatum (OD620); details: OD620 at start and after 5 days
Fusarium graminearum = tested on: Fusarium graminearum
[1] = tested on: DON/Acetyl-DON production of Fusarium graminearum
[2] = tested on: fumonisin FB1 production of Fusarium proliferatum; assay: Inhibition of fumonisin FB1 production of Fusarium proliferatum; details: 5 days, 20° C., vs control without compound

Compound	% inhibition at 50 μM Fusarium proliferatum (growth) (Fusarium proliferatum)	% inhibition at 50 μM Fusarium graminearum (growth) (Fusarium graminearum)	% inhibition at 50 μM DON/AcDON [1]	% inhibition at 50 μM FB1 [2]
C=C=Cn1c(-c2ccncc2)c(-c2ccc(F)cc2)c2ncccc21 [Example 15]	37%	33%	44%	
Nc1cc(-c2[nH]c3cccnc3c2-c2ccc(F)cc2)ccn1 [Example 4]	31%			45%

From US20100273652A1 (priority 2009, published 2010)
